Calls of active or inactive are those of the source. The rule behind the calls is not given here.
Assays:
[1] = system: Mycolicibacterium smegmatis; experiment: Antibacterial activity against Mycobacterium smegmatis ATCC 14468 assessed as reduction in bacterial growth at 3 ug/ml measured every 6 hrs by spectrometry analysis; format: functional, organism-based; details: dose 3.0 µg/ml
[2] = system: Mycolicibacterium smegmatis; experiment: Antibacterial activity against Mycobacterium smegmatis ATCC 14468 assessed as log2 fold change in transposase expression at 3 ug/ml incubated for 12 hrs by mass spectrometric analysis; format: functional; details: dose 3 µg/ml
[3] = system: Mycolicibacterium smegmatis; experiment: Antibacterial activity against Mycobacterium smegmatis ATCC 14468 assessed as log2 fold change in ABC transporter ATP binding protein expression at 3 ug/ml incubated for 12 hrs by mass spectrometric analysis; format: functional; details: dose 3 µg/ml
[4] = system: Mycolicibacterium smegmatis; experiment: Antibacterial activity against Mycobacterium smegmatis ATCC 14468 assessed as log2 fold change in TnpC protein expression at 3 ug/ml incubated for 12 hrs by mass spectrometric analysis; format: functional; details: dose 3 µg/ml
[5] = system: Mycolicibacterium smegmatis; experiment: Antibacterial activity against Mycobacterium smegmatis ATCC 14468 assessed as log2 fold change in citrate transporter expression at 3 ug/ml incubated for 12 hrs by mass spectrometric analysis; format: functional; details: dose 3 µg/ml
[6] = system: Mycolicibacterium smegmatis; experiment: Antibacterial activity against Mycobacterium smegmatis ATCC 14468 assessed as log2 fold change in TrkA expression at 3 ug/ml incubated for 12 hrs by mass spectrometric analysis; format: functional; details: dose 3 µg/ml
[7] = system: Mycolicibacterium smegmatis; experiment: Antibacterial activity against Mycobacterium smegmatis ATCC 14468 assessed as log2 fold change in integral membrane protein expression at 3 ug/ml incubated for 12 hrs by mass spectrometric analysis; format: functional; details: dose 3 µg/ml
[8] = system: Mycolicibacterium smegmatis; experiment: Antibacterial activity against Mycobacterium smegmatis ATCC 14468 assessed as log2 fold change in signal transduction histidine kinase expression at 3 ug/ml incubated for 12 hrs by mass spectrometric analysis; format: functional; details: dose 3 µg/ml
[9] = system: Mycolicibacterium smegmatis; experiment: Antibacterial activity against Mycobacterium smegmatis ATCC 14468 assessed as log2 fold change in DppB expression at 3 ug/ml incubated for 12 hrs by mass spectrometric analysis; format: functional; details: dose 3 µg/ml
[10] = system: Mycolicibacterium smegmatis; experiment: Antibacterial activity against Mycobacterium smegmatis ATCC 14468 assessed as log2 fold change in PknH_C domain-containing protein expression at 3 ug/ml incubated for 12 hrs by mass spectrometric analysis; format: functional; details: dose 3 µg/ml
[11] = system: Mycolicibacterium smegmatis; experiment: Antibacterial activity against Mycobacterium smegmatis ATCC 14468 assessed as log2 fold change in cytochrome bc1 complex Rieske-iron-sulfur subunit expression at 3 ug/ml incubated for 12 hrs by mass spectrometric analysis; format: functional; details: dose 3 µg/ml
[12] = system: Mycolicibacterium smegmatis; experiment: Antibacterial activity against Mycobacterium smegmatis ATCC 14468 assessed as log2 fold change in cytochrome bd-type quinol oxidase, subunit 1 expression at 3 ug/ml incubated for 12 hrs by mass spectrometric analysis; format: functional; details: dose 3 µg/ml
[13] = Cytotoxicity against african green monkey Vero cells assessed as cell viability at 100 ug/ml by MTT assay; format: toxicity, cell-based; details: chlorocebus sabaeus, at 100 µg/mL, read-out: Activity
[14] = Cytotoxicity against african green monkey Vero cells assessed as cell viability at 25 ug/ml by MTT assay; format: toxicity, cell-based; details: chlorocebus sabaeus, at 25 µg/mL, read-out: Activity
[15] = Cytotoxicity against african green monkey Vero cells assessed as cell viability at 12.5 ug/ml by MTT assay; format: toxicity, cell-based; details: chlorocebus sabaeus, at 12.5 µg/mL, read-out: Activity
[16] = Acute toxicity in Albino mouse assessed as change in hemoglobin level at 50 to 2000 mg/kg, po measured after 14 days (reference value: 12.8 g/dl); format: organism-based; details: in vivo, 336 h, dose 50-2000 mg/kg, time 14 day
[17] = Acute toxicity in Albino mouse assessed as change in total leucocyte count at 50 to 2000 mg/kg, po measured after 14 days (reference value: 7400 mm3); format: organism-based; details: in vivo, 336 h, dose 50-2000 mg/kg, time 14 day
[18] = Acute toxicity in Albino mouse assessed as change in eosinophils at 50 to 2000 mg/kg, po measured after 14 days (reference value: 3%); format: organism-based; details: in vivo, 336 h, dose 50-2000 mg/kg, time 14 day
[19] = Acute toxicity in Albino mouse assessed as change in ESR at 50 to 2000 mg/kg, po measured after 14 days (reference value: 10 millimeter); format: organism-based; details: in vivo, 336 h, dose 50-2000 mg/kg, time 14 day
[20] = Acute toxicity in Albino mouse assessed as change in SGOT count at 50 to 2000 mg/kg, po measured after 14 days (reference value: 42 IU/L); format: organism-based; details: in vivo, 336 h, dose 50-2000 mg/kg, time 14 day
[21] = Acute toxicity in Albino mouse assessed as change in SGPT count at 50 to 2000 mg/kg, po measured after 14 days (reference value: 52 IU/L); format: organism-based; details: in vivo, 336 h, dose 50-2000 mg/kg, time 14 day
[22] = Acute toxicity in Albino mouse assessed as change in serum creatine level at 50 to 2000 mg/kg, po measured after 14 days (reference value: 0.9 mg/dl); format: organism-based; details: in vivo, 336 h, dose 50-2000 mg/kg, time 14 day
[23] = Acute toxicity in Albino mouse assessed as change in serum urea level at 50 to 2000 mg/kg, po measured after 14 days (reference value: 46 mg/dl); format: organism-based; details: in vivo, 336 h, dose 50-2000 mg/kg, time 14 day
[24] = system: Mycolicibacterium smegmatis; experiment: Antibacterial activity against Mycobacterium smegmatis ATCC 14468 assessed as log2 fold change in L-(-)-methionine metabolite level by mass spectrometry analysis; format: functional
[25] = system: Mycolicibacterium smegmatis; experiment: Antibacterial activity against Mycobacterium smegmatis ATCC 14468 assessed as log2 fold change in l-Glutamic acid metabolite level by mass spectrometry analysis; format: functional
[26] = system: Mycolicibacterium smegmatis; experiment: Antibacterial activity against Mycobacterium smegmatis ATCC 14468 assessed as log2 fold change in l-tyrosine metabolite level by mass spectrometry analysis; format: functional
[27] = system: Mycolicibacterium smegmatis; experiment: Antibacterial activity against Mycobacterium smegmatis ATCC 14468 assessed as log2 fold change in DL-gamma-Amino-beta-hydroxybutyric acid metabolite level by mass spectrometry analysis; format: functional
[28] = Renal toxicity in Albino mouse assessed as change in Bowman's capsule at 50 to 2000 mg/kg, po measured after 14 days; format: organism-based; details: in vivo, 336 h, dose 50-2000 mg/kg, time 14 day
[29] = Renal toxicity in Albino mouse assessed as change in proximal convoluted tubules at 50 to 2000 mg/kg, po measured after 14 days; format: organism-based; details: in vivo, 336 h, dose 50-2000 mg/kg, time 14 day
[30] = Renal toxicity in Albino mouse assessed as change in distal convoluted tubules at 50 to 2000 mg/kg, po measured after 14 days; format: organism-based; details: in vivo, 336 h, dose 50-2000 mg/kg, time 14 day
[31] = Renal toxicity in Albino mouse assessed as extravasation of RBC at 50 to 2000 mg/kg, po measured after 14 days; format: organism-based, Erythrocyte; details: in vivo, 336 h, dose 50-2000 mg/kg, time 14 day
[32] = Renal toxicity in Albino mouse assessed as structural absorbability abnormalities at 50 to 2000 mg/kg, po measured after 14 days; format: organism-based; details: in vivo, 336 h, dose 50-2000 mg/kg, time 14 day
[33] = Hepatotoxicity in Albino mouse assessed as change in central vein at 50 to 2000 mg/kg, po measured after 14 days; format: toxicity, organism-based; details: in vivo, 336 h, dose 50-2000 mg/kg, time 14 day
[34] = Pulmonary toxicity in Albino mouse assessed as change in bronchi structure at 50 to 2000 mg/kg, po measured after 14 days; format: organism-based; details: in vivo, 336 h, dose 50-2000 mg/kg, time 14 day
[35] = Pulmonary toxicity in Albino mouse assessed as change in alveoli structure at 50 to 2000 mg/kg, po measured after 14 days; format: organism-based; details: in vivo, 336 h, dose 50-2000 mg/kg, time 14 day
[36] = Pulmonary toxicity in Albino mouse assessed as change in alveolar sacs at 50 to 2000 mg/kg, po measured after 14 days; format: organism-based; details: in vivo, 336 h, dose 50-2000 mg/kg, time 14 day
[37] = Pulmonary toxicity in Albino mouse assessed as change in squamous pneumocytes at 50 to 2000 mg/kg, po measured after 14 days; format: organism-based; details: in vivo, 336 h, dose 50-2000 mg/kg, time 14 day
[38] = Pulmonary toxicity in Albino mouse assessed as appearance of cilia at 50 to 2000 mg/kg, po measured after 14 days; format: organism-based; details: in vivo, 336 h, dose 50-2000 mg/kg, time 14 day

Structure (SMILES) | Activity [1] | log2FC [2] | log2FC [3] | log2FC [4] | log2FC [5] | log2FC [6] | log2FC [7] | log2FC [8] | log2FC [9] | log2FC [10] | log2FC [11] | log2FC [12] | viability at 100 ug/ml [13] [%] | viability at 25 ug/ml [14] [%] | viability at 12.5 ug/ml [15] [%] | Activity [16] [g/dL] | Activity [17] [mm3] | Activity [18] [%] | Activity [19] [millimeter/hr] | Activity [20] [IU/L] | further results
COc1ccc(C2C(Cl)C(=O)N2C2=C(Cl)C(=O)c3ccccc3C2=O)cc1 (centres undefined) | inactive | -1.22 | -1.98 | -6.64 | -1.76 | -6.64 | -6.64 | -6.64 | -6.64 | -6.64 | 1.4 | 5.6 | 0.7 | 37.6 | 68.1 | 13.9 | 9600 | 4 | 15 | 95 | Activity [21]: 64 IU/L; Activity [22]: 0.8 mg/dL; Activity [23]: 50 mg/dL; log2FC [24]: -5.44; log2FC [25]: -1.49; log2FC [26]: -1.68; log2FC [27]: -2.72; Activity [28]: Non-Toxic; Activity [29]: Non-Toxic; Activity [30]: Non-Toxic; Activity [31]: Non-Toxic; Activity [32]: Non-Toxic; Activity [33]: Non-Toxic; Activity [34]: Non-Toxic; Activity [35]: Non-Toxic; Activity [36]: Non-Toxic; Activity [37]: Non-Toxic; Activity [38]: Non-Toxic
CN(C)c1ccc(C2C(Cl)C(=O)N2C2=C(Cl)C(=O)c3ccccc3C2=O)cc1 (centres undefined) | inactive | -6.64 | -6.64 | -6.64 | -1.02 | -6.64 | -1.06 | -6.64 | -6.64 | -6.64 | 1.61 | 5.66 | 10.2 | 40.9 | 79.5 | 14.3 | 9300 | 5 | 16 | 109 | Activity [21]: 73 IU/L; Activity [22]: 0.7 mg/dL; Activity [23]: 48 mg/dL; log2FC [24]: -4.48; log2FC [25]: -0.85; log2FC [26]: -1.13; log2FC [27]: -1.1; Activity [28]: Non-Toxic; Activity [29]: Non-Toxic; Activity [30]: Non-Toxic; Activity [31]: Non-Toxic; Activity [32]: Non-Toxic; Activity [33]: Non-Toxic; Activity [34]: Non-Toxic; Activity [35]: Non-Toxic; Activity [36]: Non-Toxic; Activity [37]: Non-Toxic; Activity [38]: Non-Toxic
O=C1C(Cl)=C(Cl)C(=O)c2ccccc21 [Dichlon] | inactive | -1.92 | -2.17 | -2.19 | -3.36 | -6.64 | -6.64 | -6.64 | -6.64 | -6.64 | 6.64 | 5.6 | 28.7 | 67.1 | 100 | 14.3 | 10400 | 3 | 20 | 29 | Activity [21]: 17 IU/L; Activity [22]: 0.8 mg/dL; Activity [23]: 51 mg/dL; log2FC [24]: -3.97; log2FC [25]: -1.59; log2FC [26]: -1.18; log2FC [27]: -2.75; Activity [28]: Non-Toxic; Activity [29]: Non-Toxic; Activity [30]: Non-Toxic; Activity [31]: Non-Toxic; Activity [32]: Non-Toxic; Activity [33]: Non-Toxic; Activity [34]: Non-Toxic; Activity [35]: Non-Toxic; Activity [36]: Non-Toxic; Activity [37]: Non-Toxic; Activity [38]: Non-Toxic

Source: ChEMBL document CHEMBL5500384, “New synergistic benzoquinone scaffolds as inhibitors of mycobacterial cytochrome bc1 complex to treat multi-drug resistant tuberculosis” (Eur J Med Chem, 2024)
